Data set [1] addresses T1, Glycine receptor subunit alpha-1 (Rattus norvegicus, UniProt P07727).
T1 sequence (P07727 whole entry): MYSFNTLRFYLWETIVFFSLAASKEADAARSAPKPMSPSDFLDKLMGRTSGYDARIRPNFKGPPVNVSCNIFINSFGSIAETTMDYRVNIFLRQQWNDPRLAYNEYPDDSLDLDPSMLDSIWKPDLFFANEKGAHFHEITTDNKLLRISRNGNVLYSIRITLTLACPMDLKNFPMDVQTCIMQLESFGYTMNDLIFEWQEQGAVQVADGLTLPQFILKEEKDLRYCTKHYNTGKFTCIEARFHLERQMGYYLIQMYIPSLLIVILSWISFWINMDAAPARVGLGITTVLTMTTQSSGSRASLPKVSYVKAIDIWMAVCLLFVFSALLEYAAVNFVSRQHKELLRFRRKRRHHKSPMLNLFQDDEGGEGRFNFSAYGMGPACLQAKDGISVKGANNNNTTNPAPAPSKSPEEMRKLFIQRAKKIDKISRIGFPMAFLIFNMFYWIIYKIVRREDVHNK
The data set can be described thus: Displacement of [3H]Strychnine from glycine receptor in rat brain synaptic membranes. The data set is classed as cell membranes. A general note: Displacement assays read how much labelled ligand stays bound in the presence of the test substance.

A short description of data set [2]: Toxicity in ip dosed COBS-CDI mouse assessed as mortality measured after 3 hrs. Particulars: in vivo. In kind it is organism-based.
Data set [3] relates to Mus musculus. The data set can be described thus: Induction of clonic convulsions in ip dosed COBS-CDI mouse measured after 3 hrs. In kind it is functional.
Data set [4] has as its system Mus musculus. Briefly: Induction of tonic convulsions in ip dosed COBS-CDI mouse measured after 3 hrs. In kind it is functional.

SMILES strings stand for the structures.

Broadly, the IC50 is the midpoint of a concentration-inhibition curve. A word on the LD50: it is the dose at which mortality reaches 50%. For orientation: ED50 means the dose at which the effect has come halfway, by size or by number of responders. A lower ED50 goes with an effect at a small dose.

The compound `CN1CCC2(CNc3ccccc32)C1` (configuration not stated) showed an IC50 in data set [1] of 282 µM. Further, the LD50 at 3 h in data set [2] is 412 µmol/kg. For the same compound, the ED50 in the data set on Mus musculus [3] stood at 365 µmol/kg; in the data set on Mus musculus [4] it was 412 µmol/kg.

`CC(=O)N1CCc2ccccc21`: in data set [1], the IC50 was greater than 1000 µM. The LD50 at 3 h in data set [2] came to 1400 µmol/kg. In addition, the median effective dose (ED50) in the data set with Mus musculus [3] and in the data set with Mus musculus [4] was greater than 2480 µmol/kg each time.

With `C=CCN1CCC2(C1)CN(C(C)=O)c1ccccc12.O=C(O)C(=O)O` (configuration not stated), the IC50 in data set [1] was determined as 67.9 µM. The LD50 at 3 h in data set [2] worked out at 396 µmol/kg. For the same compound, the ED50 was 300 µmol/kg with Mus musculus [3] and 434 µmol/kg with Mus musculus [4].

In the case of `CC(=O)N1CC2(CCN(Cc3ccccc3)C2)c2ccccc21.O=C(O)C(=O)O` (configuration not stated), in data set [1], the IC50 turned out to be 31 µM. For the same compound, the LD50 at 3 h in data set [2] turned out to be 505 µmol/kg. In addition, the ED50 in the data set on Mus musculus [3] was 252 µmol/kg; in the data set on Mus musculus [4] it was greater than 1010 µmol/kg.

The compound `CC(=O)N1CC2(CCCC2)c2ccccc21` registered a 50% inhibitory concentration (IC50) in data set [1] greater than 1000 µM. For the same compound, the LD50 at 3 h in data set [2] was determined as 6880 µmol/kg. Moreover, the ED50 was 1650 µmol/kg in the data set on Mus musculus [3] and greater than 7420 µmol/kg in the data set with Mus musculus [4].

In turn, `CC(=O)N1c2ccccc2C(C)(C)C1C` (racemic) came in with an IC50 in data set [1] greater than 1000 µM. Moreover, the LD50 at 3 h in data set [2] came to 2830 µmol/kg. In addition, the 50% effective dose (ED50) was less than 1970 µmol/kg in the data set on Mus musculus [3] and greater than 3940 µmol/kg with Mus musculus [4].

Turning to `CC(=O)N1CC2(CCN(C)C2)c2ccccc21` (configuration not stated), in data set [1], the 50% inhibitory concentration (IC50) is 23.6 µM. Also, in data set [2], the 50% lethal dose (LD50) at 3 h was 94.8 µmol/kg. The median effective dose (ED50) in the data set with Mus musculus [3] was 79.6 µmol/kg; in the data set with Mus musculus [4] it was 83.9 µmol/kg.

For the compound `CC(=O)N1CC2(CCNC2)c2ccccc21.O=C(O)C(=O)O` (configuration not stated), in data set [1], the 50% inhibitory concentration (IC50) is 295 µM. For the same compound, in data set [2], the 50% lethal dose (LD50) at 3 h worked out at 687 µmol/kg. The ED50 in the data set on Mus musculus [3] was determined as 542 µmol/kg; in the data set with Mus musculus [4], 746 µmol/kg.

The values are drawn from ChEMBL document CHEMBL3272155, “Synthesis of beta-spiro[pyrrolidinoindolines], their binding to the glycine receptor, and in vivo biological acitivity” (J Med Chem, 1977).
